Test results published in BindingDB's records for doi:10.7270/Q2BR8QM3 (Nmmlsc, 2008).

target: T1, Bcl-2-like protein 2 (Homo sapiens, UniProt Q92843); test: Bcl-W/Bim binding regulators – biochemical, multiplexed, bead-based flow cytometry, fluorescence, dose response (AID 1330); conditions: not given
T1 sequence (Q92843 whole entry): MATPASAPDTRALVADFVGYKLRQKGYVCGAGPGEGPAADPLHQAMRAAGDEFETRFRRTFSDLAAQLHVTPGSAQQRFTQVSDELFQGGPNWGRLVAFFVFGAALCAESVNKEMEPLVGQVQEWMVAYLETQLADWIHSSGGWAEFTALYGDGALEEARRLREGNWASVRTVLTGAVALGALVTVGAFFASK

| EC50 | Structure (SMILES) |
| --- | --- |
| 9.02 µM | O=C(Nc1cccc(C(F)(F)F)c1)c1ccc2nc(-c3ccco3)c(-c3ccco3)nc2c1 [SMR000142217] |
| 4.15 µM | O=c1[nH]c2ccc(N=Cc3c(O)ccc4cc(Br)ccc34)cc2[nH]1 [SMR000171789] |
| 9.02 µM | C#CCn1cc(C=C2C(=O)c3ccccc3C2=O)c2ccccc21 [SMR000196125] |
| 42.4 µM | CNCc1ccccc1Sc1ccc(O)c(O)c1 [SMR000230497] |
| 5.05 µM | CN=c1scc(-c2cccs2)n1N=Cc1ccc(O)c(O)c1O [SMR000242177] |
| 2.36 µM | Nc1c(C(=O)NCC2CCCO2)sc2nc3c(c(-c4ccco4)c12)CC/C3=C\c1ccco1 (stereo unspecified) [SMR000259502] |
| 2.6 µM | Nc1c(C(=O)NC2CC2)sc2nc3c(c(-c4ccco4)c12)CC/C3=C/c1ccco1 [SMR000259554] |
| 4.03 µM | CC(=NNC(=O)c1cc(O)c(O)c(O)c1)c1ccc([N+](=O)[O-])cc1 [SMR000312589] |
| 7.89 µM | Cc1nnc2ccc(-c3cccc(NC(=O)c4ccco4)c3)nn12 [SMR000324305] |
| 37.5 µM | CCN1/C(=C/C(C)=C/c2sc3ccccc3[n+]2CC)Sc2ccccc21 [SMR000354813] |

same assay, conditions: inactive by the depositor's call

| EC50 | Structure (SMILES) |
| --- | --- |
| 21.7 µM | c1ccc(-c2nc(N3CCCCCC3)c3ccccc3n2)nc1 [SMR000046752] |
| 31.8 µM | Nc1c(C(=O)NCc2ccco2)sc2nc3c(cc12)C(=O)CCC3 [SMR000072940] |
| 16.4 µM | O=C(Nc1ccc2nc(-c3ccco3)c(-c3ccco3)nc2c1)NC1CC1 [SMR000118524] |
| 11.2 µM | O=C(NCCO)c1ccc2nc(-c3ccco3)c(-c3ccco3)nc2c1 [SMR000121771] |
| 1.31 µM | COC(=O)c1c(C(=O)OC)c2cccc3cc(-c4ccccc4)c4ccc1c4n32 [SMR000161417] |
| 15.7 µM | Nc1ccc(C2=Nc3cccc4cccc(c34)N2)cc1 [SMR000175908] |
| 17.3 µM | CN(N=Cc1cccnc1)C1=NS(=O)(=O)c2ccccc21 [SMR000207578] |
| 2.98 µM | Oc1ccc(NCc2ccccc2OCc2ccccc2)cc1 [SMR000231540] |
| 18 µM | COc1ccc(OC)c(-n2c(=O)c3ccccc3c3ccccc3c2=O)c1 [SMR000236434] |
| 10.9 µM | O=C1c2ccccc2-c2onc3ccc(N4CCCC4)c1c23 [SMR000279741] |
| 25.7 µM | COc1cc(OC)c([N+](=O)[O-])cc1[CH+][N-]NC(=O)c1ccncc1 [SMR000306621] |
| 11.1 µM | O=C(CSc1ccc2nnc(-c3ccncc3)n2n1)Nc1nccs1 [SMR000320332] |
| 1.59 µM | O=C(Nc1cccc(Cl)c1)Nc1ccnc(-c2cccnc2)n1 [SMR000337179] |
| 15.7 µM | Cc1ccnc(Nc2nc(-c3c(C)nc4sccn34)cs2)c1 [[4-(6-Methyl-imidazo[2,1-b]thiazol-5-yl)-thiazol-2-yl]-(4-methyl-pyridin-2-yl)-amine] |
| 16.7 µM | CCOC(=O)c1nc(Nc2ccc(C(=O)OC)cc2)c2ccccc2n1 [ethyl 4-(4-methoxycarbonylanilino)quinazoline-2-carboxylate] |
| 2.73 µM | CN(N=Cc1ccncc1)C1=NS(=O)(=O)c2ccccc21 [isonicotinaldehyde (1,1-dioxido-1,2-benzisothiazol-3-yl)(methyl)hydrazone] |
